According to the NIST ThermoML archive (doi:10.1016/j.fluid.2019.05.003):
± gives the expanded uncertainty stated by the source.

Test: xn = mol fraction of the nth substance listed
Conditions: 101 kPa, Liquid; for viscosity: Falling or rolling sphere viscometry; for mass density: Vibrating tube method

CC[N+]1(C)CCOCC1.[Br-] [N-ethyl-N-methylmorpholinium bromide] + O
Conditions | mass density [kg/m3] | viscosity [mPa·s]
298.15 K, x1 = 0.023 | 1062.6 ± 0.5 | 1.197 ± 0.072
298.15 K, x1 = 0.045 | 1111.8 ± 0.5 | 1.56 ± 0.094
298.15 K, x1 = 0.07 | 1156 ± 0.4 | 2.228 ± 0.14
298.15 K, x1 = 0.1 | 1197.3 ± 0.4 | 3.5 ± 0.21
298.15 K, x1 = 0.128 | 1227 ± 0.3 | 5.195 ± 0.32
298.15 K, x1 = 0.16 | 1254.9 ± 0.4 | 8.371 ± 0.51
298.15 K, x1 = 0.192 | 1278.3 ± 0.4 | 13.81 ± 0.84
298.15 K, x1 = 0.22 | 1295.2 ± 0.4 | 22.13 ± 1.3
298.15 K, x1 = 0.252 | 1311.3 ± 0.5 | 37.25 ± 2.3
303.15 K, x1 = 0.023 | 1060.7 ± 0.5 | 1.06 ± 0.064
303.15 K, x1 = 0.045 | 1109.6 ± 0.5 | 1.391 ± 0.084
303.15 K, x1 = 0.07 | 1153.6 ± 0.4 | 1.983 ± 0.12
303.15 K, x1 = 0.1 | 1194.6 ± 0.4 | 3.126 ± 0.19
303.15 K, x1 = 0.128 | 1224.2 ± 0.3 | 4.423 ± 0.27
303.15 K, x1 = 0.16 | 1252 ± 0.4 | 7.156 ± 0.43
303.15 K, x1 = 0.192 | 1275.3 ± 0.4 | 11.53 ± 0.7
303.15 K, x1 = 0.22 | 1292.1 ± 0.4 | 18.2 ± 1.1
303.15 K, x1 = 0.252 | 1308.2 ± 0.5 | 29.81 ± 1.8
308.15 K, x1 = 0.023 | 1058.6 ± 0.5 | 0.961 ± 0.058
308.15 K, x1 = 0.045 | 1107.3 ± 0.5 | 1.254 ± 0.076
308.15 K, x1 = 0.07 | 1151 ± 0.4 | 1.778 ± 0.11
308.15 K, x1 = 0.1 | 1191.8 ± 0.4 | 2.816 ± 0.17
308.15 K, x1 = 0.128 | 1221.3 ± 0.3 | 3.944 ± 0.24
308.15 K, x1 = 0.16 | 1249 ± 0.4 | 6.192 ± 0.38
308.15 K, x1 = 0.192 | 1272.3 ± 0.4 | 9.829 ± 0.6
308.15 K, x1 = 0.22 | 1289 ± 0.4 | 15.03 ± 0.91
308.15 K, x1 = 0.252 | 1305 ± 0.5 | 24.22 ± 1.5
313.15 K, x1 = 0.023 | 1056.3 ± 0.5 | 0.876 ± 0.053
313.15 K, x1 = 0.045 | 1104.8 ± 0.5 | 1.136 ± 0.069
313.15 K, x1 = 0.07 | 1148.3 ± 0.4 | 1.566 ± 0.095
313.15 K, x1 = 0.1 | 1189 ± 0.4 | 2.543 ± 0.15
313.15 K, x1 = 0.128 | 1218.4 ± 0.3 | 3.485 ± 0.21
313.15 K, x1 = 0.16 | 1246 ± 0.4 | 5.438 ± 0.33
313.15 K, x1 = 0.192 | 1269.2 ± 0.4 | 8.443 ± 0.51
313.15 K, x1 = 0.22 | 1285.9 ± 0.4 | 12.5 ± 0.76
313.15 K, x1 = 0.252 | 1301.9 ± 0.5 | 19.81 ± 1.2
318.15 K, x1 = 0.023 | 1053.7 ± 0.5 | 0.805 ± 0.049
318.15 K, x1 = 0.045 | 1102.2 ± 0.5 | 1.037 ± 0.063
318.15 K, x1 = 0.07 | 1145.6 ± 0.4 | 1.45 ± 0.088
318.15 K, x1 = 0.1 | 1186.1 ± 0.4 | 2.291 ± 0.14
318.15 K, x1 = 0.128 | 1215.4 ± 0.3 | 3.1 ± 0.19
318.15 K, x1 = 0.16 | 1243 ± 0.3 | 4.738 ± 0.29
318.15 K, x1 = 0.192 | 1266.1 ± 0.4 | 7.253 ± 0.44
318.15 K, x1 = 0.22 | 1282.8 ± 0.4 | 10.46 ± 0.63
318.15 K, x1 = 0.252 | 1298.7 ± 0.4 | 16.49 ± 1
323.15 K, x1 = 0.023 | 1051.7 ± 0.5 | 0.756 ± 0.046
323.15 K, x1 = 0.045 | 1099.6 ± 0.4 | 0.953 ± 0.058
323.15 K, x1 = 0.07 | 1142.8 ± 0.4 | 1.328 ± 0.08
323.15 K, x1 = 0.1 | 1183.2 ± 0.4 | 2.098 ± 0.13
323.15 K, x1 = 0.128 | 1212.4 ± 0.3 | 2.776 ± 0.17
323.15 K, x1 = 0.16 | 1239.9 ± 0.3 | 4.235 ± 0.26
323.15 K, x1 = 0.192 | 1263 ± 0.4 | 6.32 ± 0.38
323.15 K, x1 = 0.22 | 1279.7 ± 0.4 | 8.952 ± 0.54
323.15 K, x1 = 0.252 | 1295.6 ± 0.4 | 13.88 ± 0.84
328.15 K, x1 = 0.023 | 1049.5 ± 0.5 | 0.717 ± 0.043
328.15 K, x1 = 0.045 | 1097.1 ± 0.4 | 0.879 ± 0.053
328.15 K, x1 = 0.07 | 1139.8 ± 0.4 | 1.22 ± 0.074
328.15 K, x1 = 0.1 | 1180.2 ± 0.4 | 1.908 ± 0.12
328.15 K, x1 = 0.128 | 1209.4 ± 0.3 | 2.493 ± 0.15
328.15 K, x1 = 0.16 | 1236.8 ± 0.3 | 3.696 ± 0.22
328.15 K, x1 = 0.192 | 1259.9 ± 0.4 | 5.528 ± 0.34
328.15 K, x1 = 0.22 | 1276.5 ± 0.4 | 7.778 ± 0.47
328.15 K, x1 = 0.252 | 1292.4 ± 0.4 | 11.84 ± 0.72
333.15 K, x1 = 0.023 | 1047.3 ± 0.5 | 0.638 ± 0.039
333.15 K, x1 = 0.045 | 1094.6 ± 0.4 | 0.813 ± 0.049
333.15 K, x1 = 0.07 | 1137.3 ± 0.4 | 1.123 ± 0.068
333.15 K, x1 = 0.1 | 1177.3 ± 0.4 | 1.748 ± 0.11
333.15 K, x1 = 0.128 | 1206.3 ± 0.3 | 2.263 ± 0.14
333.15 K, x1 = 0.16 | 1233.7 ± 0.3 | 3.324 ± 0.2
333.15 K, x1 = 0.192 | 1256.7 ± 0.4 | 4.903 ± 0.3
333.15 K, x1 = 0.22 | 1273.3 ± 0.4 | 6.702 ± 0.41
333.15 K, x1 = 0.252 | 1289.2 ± 0.4 | 10.27 ± 0.62
338.15 K, x1 = 0.023 | 1045.1 ± 0.5 | 0.624 ± 0.038
338.15 K, x1 = 0.045 | 1092.1 ± 0.4 | 0.764 ± 0.046
338.15 K, x1 = 0.07 | 1134.6 ± 0.4 | 1.051 ± 0.064
338.15 K, x1 = 0.1 | 1174.6 ± 0.3 | 1.626 ± 0.098
338.15 K, x1 = 0.128 | 1203.2 ± 0.3 | 2.058 ± 0.12
338.15 K, x1 = 0.16 | 1230.5 ± 0.3 | 2.988 ± 0.18
338.15 K, x1 = 0.192 | 1253.5 ± 0.4 | 4.274 ± 0.26
338.15 K, x1 = 0.22 | 1270.1 ± 0.4 | 5.649 ± 0.34
338.15 K, x1 = 0.252 | 1286 ± 0.4 | 8.914 ± 0.54
343.15 K, x1 = 0.023 | 1042.8 ± 0.5 | 0.579 ± 0.035
343.15 K, x1 = 0.045 | 1089.6 ± 0.4 | 0.716 ± 0.043
343.15 K, x1 = 0.07 | 1131.9 ± 0.4 | 0.97 ± 0.059
343.15 K, x1 = 0.1 | 1171.7 ± 0.3 | 1.49 ± 0.09
343.15 K, x1 = 0.128 | 1200 ± 0.3 | 1.882 ± 0.11
343.15 K, x1 = 0.16 | 1227.3 ± 0.3 | 2.726 ± 0.17
343.15 K, x1 = 0.192 | 1250.3 ± 0.4 | 3.874 ± 0.23
343.15 K, x1 = 0.22 | 1266.9 ± 0.4 | 5.218 ± 0.32
343.15 K, x1 = 0.252 | 1282.7 ± 0.4 | 7.822 ± 0.47
348.15 K, x1 = 0.023 | 1040.6 ± 0.5 | 0.551 ± 0.033
348.15 K, x1 = 0.045 | 1087.2 ± 0.4 | 0.675 ± 0.041
348.15 K, x1 = 0.07 | 1129.2 ± 0.4 | 0.901 ± 0.055
348.15 K, x1 = 0.1 | 1168.8 ± 0.3 | 1.357 ± 0.082
348.15 K, x1 = 0.128 | 1196.7 ± 0.3 | 1.733 ± 0.11
348.15 K, x1 = 0.16 | 1224.1 ± 0.3 | 2.517 ± 0.15
348.15 K, x1 = 0.192 | 1247.1 ± 0.4 | 3.514 ± 0.21
348.15 K, x1 = 0.22 | 1263.6 ± 0.4 | 4.632 ± 0.28
348.15 K, x1 = 0.252 | 1279.5 ± 0.4 | 6.907 ± 0.42
